According to patent US20190202820A1, “PROCESS FOR PRODUCING FLUORINATED COMPOUNDS USING ALCOHOL SOLVENT HAVING CARBONYL GROUP” (FUTURECHEM CO., LTD., priority 2018, published 2019):
Entries after “also recorded” stand apart in the source; their conditions may differ. Read-outs that look alike come from different tables or passages of the source.

Assay: Comparison of solubility of the precursor compound according to the kind of reaction solvent (observation with the naked eye)
Type: physicochemical
Conditions: for State of the solution when the temperature dropped to room temperature: t-amyl alcohol, then dropped to room temperature
Method: The solubility of FP-CIT, FDG, FLT, FMISO, and FC119S at room temperature and at 60° C. according to the different solvents of methyl 2-hydroxyisobutyrate solvent of the present invention and t-amyl alcohol solvent of the prior art (KR 10-0789847) was investigated.

[1] = reaction solvent methyl 2-hydroxyisobutyrate (present invention), precursor amount 4-20 mg, naked eye
[2] = reaction solvent methyl 2-hydroxyisobutyrate (present invention), room temperature, precursor amount 4-20 mg, naked eye
[3] = reaction solvent t-amyl alcohol (KR 10-0789847), precursor amount 4-20 mg, naked eye
[4] = reaction solvent t-amyl alcohol (KR 10-0789847), room temperature, precursor amount 4-20 mg, naked eye

SMILES | State of the solution after cooling to room temperature (methyl-2-hydroxyisobutyrate, dissolved at 60° C., then cooled to room temperature) | Solubility 60° C. [1] | Solubility Room temperature [2] | Solubility 60° C. [3] | Solubility Room temperature [4] | State of the solution when the temperature dropped to room temperature (dissolved at 60° C.) | Solubility Room temperature | State of the solution after cooling to room temperature | Solubility Room temperature (reaction solvent methyl 2-hydroxyisobutyrate (present invention), room temperature, precursor amount 4-20 mg, naked eye, p-toluenesulfonate)
CN(C(=O)OC(C)(C)C)c1ccc(-c2nc3ccc(OC[C@@H](COS(=O)(=O)c4ccc([N+](=O)[O-])cc4)OC4CCCCO4)cc3s2)cn1 (some centres unmarked) [FC119S] | remained as a solution | dissolved | undissolved | not dissolved; also recorded: undissolved | undissolved | – | – | – | –
CC(=O)OC[C@H]1O[C@@H](OC(C)=O)[C@@H](OS(=O)(=O)C(F)(F)F)[C@@H](OC(C)=O)[C@@H]1OC(C)=O [FDG, 1,3,4,6-tetra-O-acetyl-2-O-trifluoro-methanesulfonyl-beta-D-mannopyranose] | – | dissolved | dissolved | dissolved | undissolved | precipitated again as solids | – | – | –
Cc1cn([C@H]2C[C@H](OS(=O)(=O)c3ccc([N+](=O)[O-])cc3)[C@@H](COC(c3ccccc3)(c3ccccc3)c3ccccc3)O2)c(=O)n(C(=O)OC(C)(C)C)c1=O [FLT, 3-N-Boc-5′-O-trityl-3′-O-nosyl-thymidine] | – | – | – | – | – | – | undissolved | remained as a solution | –
COC(=O)[C@H]1[C@@H](c2ccc(I)cc2)C[C@@H]2CC[C@H]1[N+]21CCC1.Cc1ccc(S(=O)(=O)[O-])cc1 [FP-CIT, (1′R, 2′S, 3′S, 5′S)-3′-(4-iodophenyl)-2′-(methoxycarbonyl)spiro[azetidine-1,8′-bicyclo[3,2,1]octan]-1-ium p-toluenesulfonate] | – | dissolved | – | dissolved | undissolved | precipitated again as solids | – | – | completely dissolved
